Six cell lines from the supplement of paper PMC10307832 can be followed below.

Common to all, as to assay: relative viability (nuclei count vs DMSO), 5 days (fraction); higher = more cells survive
Compound in the test “BI-D1870 + AZD7762”: CC(C)CCN1c2nc(Nc3cc(F)c(O)c(F)c3)ncc2N(C)C(=O)C1C [BI-D1870] + NC(=O)Nc1cc(-c2cccc(F)c2)sc1C(=O)N[C@H]1CCCNC1 [AZD7762] (partner 0.2 µM)
Summed up: (§1)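 After 5 days of treatment, lung cancer cells in 1536-well plates were fixed and stained in a single step (final 0.05% Triton X-100, 1% formaldehyde, 1 ug/ml Hoechst) and their nuclei counted on 4× images. Treatment had been applied by pin tool the day after seeding as one drug alone or as a fixed anchor-drug dose with five library-drug doses (not always all listed) in √10 steps. Relative viability is the nuclei count of treated wells divided by that of vehicle wells, and values are medians of duplicate plates.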

Compound in the test “Zebularine + Crizotinib”: O=c1ncccn1[C@@H]1O[C@H](CO)[C@@H](O)[C@H]1O [Zebularine] + C[C@@H](Oc1cc(-c2cnn(C3CCNCC3)c2)cnc1N)c1c(Cl)ccc(F)c1Cl [Crizotinib] (partner 1 µM)
The gist of the method:
as §1

Compound in the test “BI-D1870 + Olaparib”: CC(C)CCN1c2nc(Nc3cc(F)c(O)c(F)c3)ncc2N(C)C(=O)C1C [BI-D1870] + O=C(c1cc(Cc2n[nH]c(=O)c3ccccc23)ccc1F)N1CCN(C(=O)C2CC2)CC1 [Olaparib] (partner 8 µM)
Summed up:
as §1

Compound in the test “Zebularine + Foretinib”: O=c1ncccn1[C@@H]1O[C@H](CO)[C@@H](O)[C@H]1O [Zebularine] + COc1cc2c(Oc3ccc(NC(=O)C4(C(=O)Nc5ccc(F)cc5)CC4)cc3F)ccnc2cc1OCCCN1CCOCC1 [Foretinib] (partner 0.25 µM)
The gist of the method: as §1

With NCI-H1944, the relative viability with BI-D1870 + AZD7762 (first compound 0.04 µM) was 0.624; in the test with BI-D1870 + AZD7762 (first compound 0.1265 µM), 0.433; in the test with BI-D1870 + AZD7762 (first compound 0.4 µM), 0.514; with BI-D1870 + AZD7762 (first compound 1.265 µM) it was 0.685; with BI-D1870 + AZD7762 (first compound 4 µM), 0.546; with Zebularine + Crizotinib (first compound 1 µM), 1.21. Besides, the relative viability turned out to be 1.06 with Zebularine + Crizotinib (first compound 3.162 µM); 0.681 with Zebularine + Crizotinib (first compound 10 µM); 0.87 with Zebularine + Crizotinib (first compound 31.62 µM); 0.666 with Zebularine + Crizotinib (first compound 100 µM); 0.455 in the test with BI-D1870 + Olaparib (first compound 0.04 µM); 0.412 in the test with BI-D1870 + Olaparib (first compound 0.1265 µM). Also, the relative viability in the test with BI-D1870 + Olaparib (first compound 0.4 µM) was found to be 0.368; with BI-D1870 + Olaparib (first compound 1.265 µM), 0.398; with BI-D1870 + Olaparib (first compound 4 µM), 0.367; in the test with Zebularine + Foretinib (first compound 1 µM), 0.966; in the test with Zebularine + Foretinib (first compound 3.162 µM) it was 0.859; with Zebularine + Foretinib (first compound 10 µM), 0.858. For the same cell line, the relative viability with Zebularine + Foretinib (first compound 31.62 µM) turned out to be 0.81; in the test with Zebularine + Foretinib (first compound 100 µM), 0.649.

In the case of NCI-H1975, the relative viability came out at 0.791 with BI-D1870 + AZD7762 (first compound 0.04 µM); 0.611 in the test with BI-D1870 + AZD7762 (first compound 0.1265 µM); 0.721 with BI-D1870 + AZD7762 (first compound 0.4 µM); 0.732 with BI-D1870 + AZD7762 (first compound 1.265 µM); 0.653 with BI-D1870 + AZD7762 (first compound 4 µM); 1.02 with Zebularine + Crizotinib (first compound 1 µM). Besides, the relative viability with Zebularine + Crizotinib (first compound 3.162 µM) stood at 1.07; in the test with Zebularine + Crizotinib (first compound 10 µM), 0.513; with Zebularine + Crizotinib (first compound 31.62 µM) it was 0.317; with Zebularine + Crizotinib (first compound 100 µM) it was 0.265; with BI-D1870 + Olaparib (first compound 0.04 µM) it was 0.869; in the test with BI-D1870 + Olaparib (first compound 0.1265 µM), 0.708. The relative viability amounted to 0.784 with BI-D1870 + Olaparib (first compound 0.4 µM); 0.731 with BI-D1870 + Olaparib (first compound 1.265 µM); 0.499 with BI-D1870 + Olaparib (first compound 4 µM); 0.961 in the test with Zebularine + Foretinib (first compound 1 µM); 0.889 in the test with Zebularine + Foretinib (first compound 3.162 µM); 0.362 with Zebularine + Foretinib (first compound 10 µM). In addition, the relative viability with Zebularine + Foretinib (first compound 31.62 µM) stood at 0.292; in the test with Zebularine + Foretinib (first compound 100 µM) it was 0.2.

On to NCI-H1993, for which the relative viability in the test with BI-D1870 + AZD7762 (first compound 0.04 µM) was determined as 0.878; with BI-D1870 + AZD7762 (first compound 0.1265 µM), 0.682; with BI-D1870 + AZD7762 (first compound 0.4 µM), 1.03; with BI-D1870 + AZD7762 (first compound 1.265 µM), 0.988; with BI-D1870 + AZD7762 (first compound 4 µM) it was 0.471; with Zebularine + Crizotinib (first compound 1 µM), 0.732. The relative viability amounted to 0.801 with Zebularine + Crizotinib (first compound 3.162 µM); 0.862 with Zebularine + Crizotinib (first compound 31.62 µM); 0.646 with Zebularine + Crizotinib (first compound 100 µM); 1.26 in the test with BI-D1870 + Olaparib (first compound 0.04 µM); 0.907 with BI-D1870 + Olaparib (first compound 0.1265 µM); 0.987 with BI-D1870 + Olaparib (first compound 0.4 µM). Further, the relative viability is 1.15 with BI-D1870 + Olaparib (first compound 1.265 µM); 0.995 with BI-D1870 + Olaparib (first compound 4 µM); 0.843 with Zebularine + Foretinib (first compound 1 µM); 0.697 with Zebularine + Foretinib (first compound 3.162 µM); 0.718 with Zebularine + Foretinib (first compound 10 µM); 0.753 with Zebularine + Foretinib (first compound 31.62 µM). The relative viability with Zebularine + Foretinib (first compound 100 µM) is 0.704.

In the case of NCI-H2085, the relative viability is 1.06 with BI-D1870 + AZD7762 (first compound 0.04 µM); 0.972 in the test with BI-D1870 + AZD7762 (first compound 0.1265 µM); 0.927 with BI-D1870 + AZD7762 (first compound 0.4 µM); 0.97 with BI-D1870 + AZD7762 (first compound 1.265 µM); 0.771 in the test with BI-D1870 + AZD7762 (first compound 4 µM); 0.986 in the test with Zebularine + Crizotinib (first compound 1 µM). The relative viability in the test with Zebularine + Crizotinib (first compound 3.162 µM) was found to be 0.814; with Zebularine + Crizotinib (first compound 10 µM) it was 0.827; with Zebularine + Crizotinib (first compound 31.62 µM) it was 0.804; with Zebularine + Crizotinib (first compound 100 µM), 0.488; in the test with BI-D1870 + Olaparib (first compound 0.04 µM) it was 0.813; in the test with BI-D1870 + Olaparib (first compound 0.1265 µM) it was 0.768. The relative viability in the test with BI-D1870 + Olaparib (first compound 0.4 µM) amounted to 0.737; with BI-D1870 + Olaparib (first compound 1.265 µM), 0.702; with BI-D1870 + Olaparib (first compound 4 µM), 0.429; with Zebularine + Foretinib (first compound 1 µM), 0.879; in the test with Zebularine + Foretinib (first compound 3.162 µM), 1.06; in the test with Zebularine + Foretinib (first compound 10 µM), 0.785. Besides, the relative viability stood at 0.833 with Zebularine + Foretinib (first compound 31.62 µM) and 0.503 with Zebularine + Foretinib (first compound 100 µM).

With NCI-H2087, the relative viability with BI-D1870 + AZD7762 (first compound 0.04 µM) amounted to 1.41; in the test with BI-D1870 + AZD7762 (first compound 0.1265 µM), 1.4; with BI-D1870 + AZD7762 (first compound 0.4 µM), 1.37; with BI-D1870 + AZD7762 (first compound 1.265 µM) it was 1.45; with BI-D1870 + AZD7762 (first compound 4 µM), 1.41; with Zebularine + Crizotinib (first compound 1 µM), 1.07. In addition, the relative viability with Zebularine + Crizotinib (first compound 3.162 µM) was determined as 0.803; with Zebularine + Crizotinib (first compound 10 µM) it was 0.551; in the test with Zebularine + Crizotinib (first compound 31.62 µM), 0.654; in the test with Zebularine + Crizotinib (first compound 100 µM), 0.197; with BI-D1870 + Olaparib (first compound 0.04 µM), 0.708; in the test with BI-D1870 + Olaparib (first compound 0.1265 µM) it was 0.519. The relative viability came out at 0.572 with BI-D1870 + Olaparib (first compound 0.4 µM); 0.563 in the test with BI-D1870 + Olaparib (first compound 1.265 µM); 0.564 with BI-D1870 + Olaparib (first compound 4 µM); 1.06 in the test with Zebularine + Foretinib (first compound 1 µM); 1.04 with Zebularine + Foretinib (first compound 3.162 µM); 0.782 with Zebularine + Foretinib (first compound 10 µM). For the same cell line, the relative viability is 0.791 with Zebularine + Foretinib (first compound 31.62 µM) and 0.284 with Zebularine + Foretinib (first compound 100 µM).

With NCI-H2126, the relative viability with BI-D1870 + AZD7762 (first compound 0.04 µM) turned out to be 1.02; in the test with BI-D1870 + AZD7762 (first compound 0.1265 µM), 1.02; with BI-D1870 + AZD7762 (first compound 0.4 µM), 0.95; in the test with BI-D1870 + AZD7762 (first compound 1.265 µM) it was 1.05; with BI-D1870 + AZD7762 (first compound 4 µM) it was 0.991; with Zebularine + Crizotinib (first compound 1 µM), 1.11. The relative viability with Zebularine + Crizotinib (first compound 3.162 µM) worked out at 0.987; in the test with Zebularine + Crizotinib (first compound 10 µM) it was 0.958; with Zebularine + Crizotinib (first compound 31.62 µM) it was 0.804; in the test with Zebularine + Crizotinib (first compound 100 µM), 0.503; in the test with BI-D1870 + Olaparib (first compound 0.04 µM), 0.97; in the test with BI-D1870 + Olaparib (first compound 0.1265 µM) it was 0.928. Besides, the relative viability stood at 0.895 with BI-D1870 + Olaparib (first compound 0.4 µM); 0.885 in the test with BI-D1870 + Olaparib (first compound 1.265 µM); 0.859 in the test with BI-D1870 + Olaparib (first compound 4 µM); 1.44 with Zebularine + Foretinib (first compound 1 µM); 1.09 in the test with Zebularine + Foretinib (first compound 3.162 µM); 0.97 with Zebularine + Foretinib (first compound 10 µM). For the same cell line, the relative viability came to 1.06 with Zebularine + Foretinib (first compound 31.62 µM) and 0.883 in the test with Zebularine + Foretinib (first compound 100 µM).
